{
  "source": "patent US20080299228A1",
  "about": "“TOPICAL COMPOSITIONS COMPRISING A MACROMOLECULE AND METHODS OF USING SAME” (priority 2007, published 2008)",
  "test": "Excipient compatibility screening with sodium thiosulfate (appearance)",
  "format": "physicochemical",
  "details": "added to the gel formulation",
  "procedure": "During preformulation studies, sodium thiosulfate and methionine were identified as effective antioxidants for PTH(1-34). […] Sodium thiosulfate was assayed in the gel formulations listed in Table 21 in the absence of PTH(1-34) in order to identify which excipients were incompatible with sodium thiosulfate. Gel formulations were prepared according to the method described in Example 8. LDPE dropper bottles (5 mL) were purchased from IntraPac Group and over wrap foil (FR-2175) was obtained from Covalence Coated Products. The appearance of all samples was noted initially and after one week of storage at 20° C. protected from light.",
  "data": [
    {"molecule": "O=S([O-])([O-])=S.[Na+].[Na+]", "note": "[sodium thiosulfate]", "values": [
      {"measurement": "compatibility with the gel formulation", "value": "a yellowish precipitate formed"}
    ]}
  ]
}
